ChEMBL document CHEMBL1131575, “[125I/127I/131I]Iodorhodamine: synthesis, cellular localization, and biodistribution in athymic mice bearing human tumor xenografts and comparison with [99mTc]hexakis(2-methoxyisobutylisonitrile)” (J Med Chem, 1998)

Assays:
Mus musculus [1] = experiment: Ratio of biodistributions in Athymic mice bearing human Tumor (KB) xenografts in Heart (H) and Lung (L); format: ADME, organism-based; details: in vivo
Mus musculus [2] = experiment: Biodistribution in athymic mice bearing Human Tumor (TE671) Xenografts 1 hour after injection in Heart (H); format: ADME, organism-based; details: in vivo
[3] = (§1) Ratio of biodistributions in Athymic mice bearing human Tumor (LS174T) xenografts in Tumor (T) and blood (B); format: ADME, organism-based; details: mouse, read-out: Biodistribution ratio
Homo sapiens [4] = experiment: Biodistribution in athymic mice bearing Human Tumor (TE671) Xenografts 1 hour after injection in Tumor (T) cells; format: ADME, organism-based; details: in vivo
Homo sapiens [5] = experiment: Biodistribution in athymic mice bearing Human Tumor (KB) Xenografts 1 hour after injection in Tumor (T) cells; format: ADME, organism-based; details: in vivo
Mus musculus [6] = experiment: Biodistribution in athymic mice bearing Human Tumor (TE671) Xenografts 1 hour after injection in Lung (L); format: ADME, organism-based; details: in vivo
[7] = (§2) Ratio of biodistributions in Athymic mice bearing human Tumor (LS174T) xenografts in Heart (H) and Blood (B); format: ADME, organism-based; details: mouse, read-out: Biodistribution ratio
Mus musculus [8] = experiment: Biodistribution in athymic mice bearing Human Tumor (LS174T) Xenografts 1 hour after injection in Muscle (M); format: ADME, organism-based; details: in vivo
Mus musculus [9] = experiment: Biodistribution in athymic mice bearing Human Tumor (KB) Xenografts 1 hour after injection in Heart (H); format: ADME, organism-based; details: in vivo
[10] = (§3) Ratio of biodistributions in Athymic mice bearing human Tumor (TE671) xenografts in Heart (H) and Blood (B); format: ADME, organism-based; details: mouse, read-out: Biodistribution ratio
Mus musculus [11] = experiment: Biodistribution in athymic mice bearing Human Tumor (KB) Xenografts 1 hour after injection in Blood (B); format: ADME, organism-based; details: in vivo
Mus musculus [12] = experiment: Ratio of biodistributions in Athymic mice bearing human Tumor (KB) xenografts in Tumor (T) and Muscle (M); format: ADME, organism-based; details: in vivo
Mus musculus [13] = experiment: Ratio of biodistributions in Athymic mice bearing human Tumor (LS174T) xenografts in Tumor (T) and Muscle (M); format: ADME, organism-based; details: in vivo
Mus musculus [14] = experiment: Biodistribution in athymic mice bearing Human Tumor (TE671) Xenografts 1 hour after injection in Muscle (M); format: ADME, organism-based; details: in vivo
Mus musculus [15] = experiment: Ratio of biodistributions in Athymic mice bearing human Tumor (TE671) xenografts in Tumor (T) and Muscle (M); format: ADME, organism-based; details: in vivo
[16] = (§4) Ratio of biodistributions in Athymic mice bearing human Tumor (KB) xenografts in Heart (H) and Blood (B); format: ADME, organism-based; details: mouse, read-out: Biodistribution ratio
Mus musculus [17] = experiment: Biodistribution in athymic mice bearing Human Tumor (TE671) Xenografts 1 hour after injection in Blood (B); format: ADME, organism-based; details: in vivo
[18] = (§5) Ratio of biodistributions in Athymic mice bearing human Tumor (KB) xenografts in Tumor (T) and blood (B); format: ADME, organism-based; details: mouse, read-out: Biodistribution ratio
Mus musculus [19] = experiment: Biodistribution in athymic mice bearing Human Tumor (KB) Xenografts 1 hour after injection in Lung (L); format: ADME, organism-based; details: in vivo
[20] = (§6) Ratio of biodistributions in Athymic mice bearing human Tumor (TE671) xenografts in Tumor (T) and blood (B); format: ADME, organism-based; details: mouse, read-out: Biodistribution ratio
Mus musculus [21] = experiment: Biodistribution in athymic mice bearing Human Tumor (LS174T) Xenografts 1 hour after injection in Heart (H); format: ADME, organism-based; details: in vivo
Mus musculus [22] = experiment: Biodistribution in athymic mice bearing Human Tumor (KB) Xenografts 1 hour after injection in Muscle (M); format: ADME, organism-based; details: in vivo
Mus musculus [23] = experiment: Biodistribution in athymic mice bearing Human Tumor (LS174T) Xenografts 1 hour after injection in Lung (L); format: ADME, organism-based; details: in vivo
Mus musculus [24] = experiment: Biodistribution in athymic mice bearing Human Tumor (LS174T) Xenografts 1 hour after injection in Blood (B); format: ADME, organism-based; details: in vivo
Mus musculus [25] = experiment: Ratio of biodistributions in Athymic mice bearing human Tumor (LS174T) xenografts in Heart (H) and Lung (L); format: ADME, organism-based; details: in vivo
Mus musculus [26] = experiment: Biodistribution in athymic mice bearing Human Tumor (LS174T) Xenografts 1 hour after injection in Tumor (T) cells; format: ADME, organism-based; details: in vivo
Mus musculus [27] = experiment: Ratio of biodistributions in Athymic mice bearing human Tumor (TE671) xenografts in Heart (H) and Lung (L); format: ADME, organism-based; details: in vivo
Mus musculus [28] = experiment: as §6; format: ADME, organism-based, Blood/Heart
Mus musculus [29] = experiment: as §2; format: ADME, organism-based
Mus musculus [30] = experiment: as §3; format: ADME, organism-based
Mus musculus [31] = experiment: as §4; format: ADME, organism-based
Mus musculus [32] = experiment: as §1; format: ADME, organism-based, Blood/Heart
Mus musculus [33] = experiment: as §5; format: ADME, organism-based

Biodistribution ratio (Mus musculus [1])	Dose/g (Mus musculus [2])	Dose/g (Homo sapiens [4])	Dose/g (Homo sapiens [5])	Dose/g (Mus musculus [6])	Dose/g (Mus musculus [8])	Dose/g (Mus musculus [9])	Dose/g (Mus musculus [11])	Biodistribution ratio (Mus musculus [12])	Biodistribution ratio (Mus musculus [13])	Dose/g (Mus musculus [14])	Biodistribution ratio (Mus musculus [15])	Dose/g (Mus musculus [17])	Dose/g (Mus musculus [19])	Dose/g (Mus musculus [21])	Dose/g (Mus musculus [22])	Dose/g (Mus musculus [23])	Dose/g (Mus musculus [24])	Biodistribution ratio (Mus musculus [25])	Dose/g (Mus musculus [26])	Compound	also measured
0.8	0.6%	1.1%	1.67%	0.91%	0.36%	2.56%	4.6%	1.2	1.6	0.36%	3.1	1.74%	3.23%	0.6%	1.44%	0.91%	1.74%	0.7	0.59%	COC(=O)c1ccccc1-c1c2ccc(=N)cc-2oc2cc(N)ccc12.[125IH]	Kp [3]: 0.34; Kp [7]: 0.5; Kp [10]: 0.5; Kp [16]: 0.6; Kp [18]: 0.36; Kp [20]: 0.63; Biodistribution ratio (Mus musculus [27]): 0.7
4.5	6%	1.1%	0.65%	0.5%	1.22%	8.13%	0.17%	0.24	0.43	1.22%	0.9	0.13%	1.82%	6%	2.74%	0.5%	0.13%	12	0.52%	Hexakis-(2-methoxyisobutylisonitrile)Technetium (99mTc-MIBI)	Biodistribution ratio (Mus musculus [28]): 8.5; Biodistribution ratio (Mus musculus [29]): 46; Biodistribution ratio (Mus musculus [30]): 46; Biodistribution ratio (Mus musculus [31]): 48; Biodistribution ratio (Mus musculus [32]): 4; Biodistribution ratio (Mus musculus [33]): 3.8; Biodistribution ratio (Mus musculus [27]): 12
